According to ChEMBL document CHEMBL3097993, “Synthesis and initial biological evaluation of new mimics of the LXR-modulator 22(S)-hydroxycholesterol” (2014):
Blank lines part the entries; values can stand above or below the compound they belong to. Calls of active or inactive are those of the source. The rule behind the calls is not given here.

How the values were obtained:
Homo sapiens [1] = species on record: Homo sapiens; test: Induction of lipogenesis in human myotubes at 1 uM after 4 days by scintillation counting analysis in presence of [1-14C]acetate; format: functional
Homo sapiens [2] = species on record: Homo sapiens; test: Inhibition of tularic-induced lipogenesis in human myotubes at 10 uM after 4 days by scintillation counting analysis in presence of [1-14C]acetate relative to control; format: functional
Homo sapiens [3] = species on record: Homo sapiens; test: (§1) Induction of lipogenesis in human myotubes at 10 uM after 4 days by scintillation counting analysis in presence of [1-14C]acetate relative to control; format: functional
[4] = molecular target: T1, Liver X receptor (Homo sapiens) (UniProt Q13133+P55055); test: Antagonist activity at LXR in human myotubes assessed as downregulation of SCD1 expression at 10 uM after 4 days by qPCR analysis
[5] = molecular target: T1, Liver X receptor (Homo sapiens); test: Agonist activity at LXR in human myotubes assessed as upregulation of SCD1 expression at 10 uM after 4 days by qPCR analysis
[6] = as §1; format: functional

Compound: O=S(=O)(c1ccccc1)N(CC(F)(F)F)c1ccc(C(O)(C(F)(F)F)C(F)(F)F)cc1
Activity (Homo sapiens [1]): Active

Compound: CC(C)CC[C@H](O)[C@@H](C)[C@H]1CC[C@H]2[C@@H]3CC=C4C[C@@H](O)CC[C@]4(C)[C@H]3CC[C@]12C
inhibition (Homo sapiens [2]): Active
Activity (Homo sapiens [3]): inactive
Activity [4]: Active

Activity [5]: Active
Compound: CC(C)CC[C@H](O)[C@@H](C)COCc1ccc(S(=O)(=O)N2CCCC2)cc1
fold change (FC) [6]: 2
